Test results taken from PubChem BioAssay (NCI).
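All cell lines were grown in 96-well plates and treated with compound for 48 hours. TGI marks complete inhibition of growth.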

Legend:
Assay in all cases: growth of human tumour cells (NCI), 48 h
A549 NSCLC = tested on: A549 NSCLC
CAKI-1 renal = tested on: CAKI-1 renal
COLO 205 colon = tested on: COLO 205 colon
IGROV1 ovarian = tested on: IGROV1 ovarian
M19-MEL melanoma = tested on: M19-MEL melanoma
NCI-H522 lung = tested on: NCI-H522 lung
SF-268 CNS = tested on: SF-268 CNS
SK-MEL-2 melanoma = tested on: SK-MEL-2 melanoma
SK-MEL-5 melanoma = tested on: SK-MEL-5 melanoma
UACC-62 melanoma = tested on: UACC-62 melanoma
PC-3 prostate = tested on: PC-3 prostate
SR leukemia = tested on: SR leukemia

Row | Structure (SMILES) | TGI (A549 NSCLC) | TGI (CAKI-1 renal) | TGI (COLO 205 colon) | TGI (IGROV1 ovarian) | TGI (M19-MEL melanoma) | TGI (NCI-H522 lung) | TGI (SF-268 CNS) | TGI (SK-MEL-2 melanoma) | TGI (SK-MEL-5 melanoma) | TGI (UACC-62 melanoma) | TGI (PC-3 prostate) | TGI (SR leukemia)
1 | CN(C)C(=S)/N=c1\ssc(=S)n1Cc1ccccn1 | > 100 µM | > 100 µM | 21.4 µM | > 100 µM | > 100 µM | 4.17 µM | > 100 µM | 5.98 µM | > 54.4 µM | 11 µM | – | –
2 | COc1cc(C(c2cc(OC)c(OC)c(OC)c2)N2C(=O)CCC2C(=O)O)cc(OC)c1OC (stereo unspecified) | > 100 µM | > 100 µM | > 100 µM | > 100 µM | – | > 100 µM | > 100 µM | > 100 µM | > 100 µM | > 100 µM | > 100 µM | > 100 µM
3 | COC(=O)C(C(=O)C(=O)Nc1ccc(C)cc1C)c1nc2ccc([N+](=O)[O-])cc2[nH]c1=O (stereo unspecified) | > 100 µM | > 100 µM | > 100 µM | > 100 µM | > 100 µM | > 100 µM | > 100 µM | > 100 µM | > 100 µM | > 100 µM | – | > 100 µM
4 | COc1ccc(-c2cc(-c3ccc(Nc4ccnc5cc(C(F)(F)F)ccc45)cc3)[nH]c(=O)c2C#N)cc1 | > 100 µM | > 100 µM | > 63.7 µM | > 100 µM | – | > 100 µM | > 88.6 µM | > 100 µM | > 100 µM | > 100 µM | > 100 µM | > 100 µM
5 | C[N+](C)(N)Cc1csc(-c2ccc(Cl)cc2)n1 | > 100 µM | > 100 µM | > 100 µM | > 100 µM | – | > 100 µM | > 100 µM | > 100 µM | > 100 µM | > 100 µM | > 100 µM | > 100 µM
6 | CCN(CC)CCNC(=O)c1cc2cc(NC(=O)c3cc4cc(NC(=O)c5cc6cc([N+](=O)[O-])ccc6[nH]5)ccc4[nH]3)ccc2[nH]1 | > 100 µM | > 100 µM | > 100 µM | > 100 µM | – | > 100 µM | > 100 µM | > 100 µM | > 100 µM | > 100 µM | > 100 µM | 14.4 µM
7 | CC(Nc1cc(=O)n(C)c(=O)[nH]1)c1ccccc1 (stereo unspecified) | > 100 µM | > 100 µM | > 100 µM | > 100 µM | – | > 100 µM | > 100 µM | > 100 µM | > 100 µM | > 100 µM | > 100 µM | > 100 µM
8 | CCc1c(-c2coc(CC/C(C)=C/c3ccccc3)n2)oc(OC)c(C)c1=O | > 100 µM | > 100 µM | > 47.8 µM | > 100 µM | > 100 µM | 15.3 µM | > 100 µM | > 100 µM | > 46.9 µM | > 53 µM | – | 29.3 µM
9 | O=c1[nH]c2cc([N+](=O)[O-])c(N(CCO)CCO)c([N+](=O)[O-])c2[nH]1 | > 100 µM | > 100 µM | 51.8 µM | > 100 µM | – | > 100 µM | > 100 µM | 96.1 µM | 39.7 µM | 72.1 µM | > 100 µM | > 100 µM
10 | CCC(=O)n1c(=O)n(-c2ccc([N+](=O)[O-])cc2)c(=O)n1C(=O)CC | > 100 µM | > 100 µM | > 100 µM | > 100 µM | – | > 100 µM | > 100 µM | > 100 µM | > 100 µM | > 100 µM | > 100 µM | > 100 µM
11 | Cc1ccc(-c2nc3n(c2/C=N\N=C(N)N)CCS3)cc1 | 29.5 µM | 34 µM | 27.7 µM | 28.3 µM | – | 18.1 µM | 29.3 µM | 25.9 µM | 27.2 µM | 32.1 µM | 28.5 µM | > 100 µM
12 | CC(C(O)c1ccccc1)[N+](=O)[O-] (stereo unspecified) | 40 µM | 30.6 µM | 80 µM | 34.4 µM | – | 22.9 µM | 95.5 µM | 39 µM | 39.1 µM | 37.2 µM | 45.3 µM | 9.82 µM
13 | N=C(N)Cn1cnc2ccccc21 | > 100 µM | – | > 100 µM | > 100 µM | > 100 µM | > 100 µM | > 100 µM | > 100 µM | > 100 µM | > 100 µM | – | –
14 | CC1=NN(c2cccc(Cl)c2)C2(C1)SCC(=O)N2c1nc2ccccc2s1 (stereo unspecified) | > 100 µM | > 100 µM | 32.5 µM | > 100 µM | – | 75.5 µM | > 100 µM | 49.2 µM | 39.4 µM | > 100 µM | 65.1 µM | 37.8 µM
15 | C=CC[C@@]1(C#N)C[C@H](C[C@]2(C#N)C[C@H](CCl)OC(C)(C)O2)OC(C)(C)O1 | > 100 µM | > 100 µM | > 100 µM | > 100 µM | > 100 µM | > 100 µM | > 100 µM | > 100 µM | > 100 µM | > 100 µM | – | > 100 µM
16 | O=C(O)C1(CC(CCCN2CCCCC2)c2ccccc2)CCCC1 (stereo unspecified) | > 100 µM | > 100 µM | > 100 µM | > 100 µM | – | > 100 µM | > 100 µM | > 100 µM | > 100 µM | > 100 µM | > 100 µM | > 100 µM
17 | O=C(Nc1ccc(Cl)cc1)c1cc(S(=O)(=O)NC2=NC(c3ccccc3)c3cc(Cl)ccc3N2)c(SSc2cc(Cl)c(C(=O)Nc3ccc(Cl)cc3)cc2S(=O)(=O)NC2=NC(c3ccccc3)c3cc(Cl)ccc3N2)cc1Cl (stereo unspecified) | > 100 µM | > 100 µM | > 100 µM | > 100 µM | – | > 100 µM | > 100 µM | > 100 µM | > 100 µM | > 100 µM | > 100 µM | 58.5 µM
18 | Nc1ccc(S(=O)(=O)c2ccc(N=[N+]([O-])c3ccc(S(=O)(=O)c4ccc(N)cc4)cc3)cc2)cc1 | > 100 µM | > 100 µM | > 100 µM | > 100 µM | – | > 74 µM | > 45.9 µM | > 94.2 µM | > 100 µM | > 100 µM | > 100 µM | > 100 µM
19 | CCOC(=S)SC/C(=N\OC(C)(C)OC)c1ccccc1 | > 100 µM | > 100 µM | > 100 µM | > 100 µM | – | 59.1 µM | > 100 µM | 43.9 µM | > 100 µM | > 100 µM | > 100 µM | 35.9 µM
